Measurements reported in US10844044B2 (Vanderbilt University, priority 2018, dated 2020).
Like-named read-outs stand apart in the source and are kept apart here. Each block holds one compound with its values, some of them ahead of it.

Tests used:
[1] = system: MV4:11 human cancer cell lines; assay: Anti-proliferative activity, CellTiter-Glo viability assay, 7 day protocol; assay type: cell-based; conditions: Homo sapiens, MV4-11, 168 h, MV4:11 cells, 7 day incubation, read-out: GI50 on cellular proliferation of MV4:11 human cancer cell lines
Summary of the method: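 MV4:11 cells seeded at 3600 cells/ml and exposed to compounds for 7 days, 0.1% DMSO final. Viability measured by CellTiter-Glo luminescence. GI50 from three biological replicates, each in technical triplicate, given as mean ± S.E.M.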

[2] = molecular target: WDR5 (Homo sapiens (Human), UniProt P61964); assay: TR-FRET binding assay (displacement of 10mer-Thr-FAM probe from WDR5)
[3] = read-out: Ki for Inhibition of WDR5 by TR-FRET assay, TR-FRET, 10mer-Thr-FAM probe, WDR5-His tag 2 nM, pH 7.0
[4] = read-out: Ki for Inhibition of WDR5 by TR-FRET assay

Structure (SMILES): CCn1cc(-c2cc(Cn3ccn(C)c3=N)cc(C(=O)NCc3ccc(F)c(C)c3)c2)c(C(F)(F)F)n1 [Example 198, 3-(1-Ethyl-3-(trifluoromethyl)-1H-pyrazol-4-yl)-N-(4-fluoro-3-methylbenzyl)-5-((2-imino-3-methyl-2,3-dihydro-1H-imidazol-1-yl)methyl)benzamide]
GI50 [1]: < 100 nM | Ki [2, 3]: < 0.1 nM

Structure (SMILES): CCn1cc(-c2cc(Cn3ccn(C4CC4)c3=N)cc(C(=O)NCc3ccc(=O)n(C)c3)c2)c(C(F)(F)F)n1 [Example 199, 3-((3-Cyclopropyl-2-imino-2,3-dihydro-1H-imidazol-1-yl)methyl)-5-(1-ethyl-3-(trifluoromethyl)-1H-pyrazol-4-yl)-N-((1-methyl-6-oxo-1,6-dihydropyridin-3-yl)methyl)benzamide]
GI50 [1]: 940 nM | Ki [2, 3]: 0.3 nM

Structure (SMILES): CCn1cc(-c2cc(Cn3ccn(C)c3=N)cc(C(=O)NCc3ccc(=O)n(C)c3)c2)c(C(F)(F)F)n1 [Example 200, 3-(1-Ethyl-3-(trifluoromethyl)-1H-pyrazol-4-yl)-5-((2-imino-3-methyl-2,3-dihydro-1H-imidazol-1-yl)methyl)-N-((1-methyl-6-oxo-1,6-dihydropyridin-3-yl)methyl)benzamide]
GI50 [1]: 710 nM | Ki [2, 3]: 0.15 nM

Structure (SMILES): Cc1cc([C@@H](NC(=O)c2cc(Cn3ccn(C)c3=N)cc(-c3ccccc3C)c2)C2CC2)ccc1F [Example 201, (S)—N-(Cyclopropyl(4-fluoro-3-methylphenyl)methyl)-5-((2-imino-3-methyl-2,3-dihydro-1H-imidazol-1-yl)methyl)-2′-methyl-[1,1′-biphenyl]-3-carboxamide]
GI50 [1]: 140 nM | Ki [2, 3]: < 0.1 nM

Structure (SMILES): CCn1cc(-c2cc(Cn3ccn(C4CC4)c3=N)cc(C(=O)N[C@H](c3ccc(F)c(Cl)c3)C3CC3)c2)c(C(F)(F)F)n1 [Example 202, (S)—N-((3-Chloro-4-fluorophenyl)(cyclopropyl)methyl)-3-((3-cyclopropyl-2-imino-2,3-dihydro-1H-imidazol-1-yl)methyl)-5-(1-ethyl-3-(trifluoromethyl)-1H-pyrazol-4-yl)benzamide]
GI50 [1]: < 100 nM | Ki [2, 3]: < 0.1 nM

Structure (SMILES): Cc1cc([C@@H](NC(=O)c2cc(CN3CCN(C)C3=N)cc(-c3cn(C)nc3C(F)(F)F)c2)C2CC2)ccc1F [Example 203, (S)—N-(cyclopropyl(4-fluoro-3-methylphenyl)methyl)-3-((2-imino-3-methylimidazolidin-1-yl)methyl)-5-(1-methyl-3-(trifluoromethyl)-1H-pyrazol-4-yl)benzamide]
GI50 [1]: < 100 nM | Ki [2, 4]: < 0.1 nM

Structure (SMILES): Cc1cc([C@@H](NC(=O)c2cc(Cn3ccn(C4CC4)c3=N)cc(-c3cn(C)nc3C(F)(F)F)c2)C2CC2)ncc1F [Example 204, (S)—N-(Cyclopropyl(5-fluoro-4-methypyridin-2-yl)methyl)-3-((3-cyclopropyl-2-imino-2,3-dihydro-1H-imidazol-1-yl)methyl)-5-(1-methyl-3-(trifluoromethyl)-1H-pyrazol-4-yl)benzamide]
GI50 [1]: < 100 nM | Ki [2, 3]: < 0.1 nM

Structure (SMILES): Cc1cc([C@@H](NC(=O)c2cc(Cn3ccn(C)c3=N)cc(-c3cn(C)nc3C(F)(F)F)c2)C2CC2)ncc1F [Example 205, (S)—N-(Cyclopropyl(5-fluoro-4-methylpyridin-2-yl)methyl)-3-((2-imino-3-methyl-2,3-dihydro-1H-imidazol-1-yl)methyl)-5-(1-methyl-3-(trifluoromethyl)-1H-pyrazol-4-yl)benzamide]
GI50 [1]: < 100 nM | Ki [2, 3]: < 0.1 nM

Structure (SMILES): COc1cc([C@@H](NC(=O)c2cc(Cn3ccn(C)c3=N)cc(-c3cn(C)nc3C(F)(F)F)c2)C2CC2)ccc1F [Example 207]
GI50 [1]: < 100 nM | Ki [2, 3]: < 0.1 nM

Structure (SMILES): CCOc1c(C(=O)N[C@@H](C)c2ccc(F)c(C)c2)cc(Cn2ccn(C)c2=N)cc1-c1cn(C)nc1C(F)(F)F [Example 209, (S)-2-Ethoxy-N-(1-(4-fluoro-3-methylphenyl)ethyl)-5-((2-imino-3-methyl-2,3-dihydro-1H-imidazol-1-yl)methyl)-3-(1-methyl-3-(trifluoromethyl)-1H-pyrazol-4-yl)benzamide]
GI50 [1]: < 100 nM | Ki [2, 3]: < 0.1 nM

Structure (SMILES): CCOc1c(C(=O)N[C@H](c2ccc(F)c(C)c2)C2CC2)cc(Cn2ccn(C)c2=N)cc1-c1cn(C)nc1C(F)(F)F [Example 210, (S)—N-(Cyclopropyl(4-fluoro-3-methylphenyl)methyl)-2-ethoxy-5-((2-iminio-3-methyl-2,3-dihydro-1H-imidazol-1-yl)methyl)-3-(1-methyl-3-(trifluoromethyl)-1H-pyrazol-4-yl)benzamide]
GI50 [1]: < 100 nM | Ki [2, 3]: < 0.1 nM

Structure (SMILES): Cn1cc(-c2cc(Cn3ccn(C)c3=N)cc(C(=O)N[C@H](c3ccc(Cl)c(Cl)c3)C3CC3)c2)c(C(F)(F)F)n1 [Example 211]
GI50 [1]: < 100 nM | Ki [2, 3]: < 0.1 nM

Structure (SMILES): CCn1cc(-c2cc(CN3CCN(C)C3=N)cc(C(=O)N[C@H](c3ccc(F)c(C)c3)C3CC3)c2)c(C(F)(F)F)n1 [Example 212, (S)—N-(Cyclopropyl(4-fluoro-3-methylphenyl)methyl)-3-(1-ethyl-3-(trifluoromethyl)-1H-pyrazol-4-yl)-5-((2-imino-3-methylimidazolidin-1-yl)methyl)benzamide]
GI50 [1]: < 100 nM | Ki [2]: < 0.1 nM

GI50 [1]: < 100 nM | Ki [2]: < 0.1 nM
Structure (SMILES): CCn1cc(-c2cc(CN3CCN(C)C3=N)cc(C(=O)N[C@H](c3ccc(F)c(F)c3)C3CC3)c2)c(C(F)(F)F)n1 [Example 213, (S)—N-(Cyclopropyl(3,4-difluorophenyl)methyl)-3-(1-ethyl-3-(trifluoromethyl)-1H-pyrazol-4-yl)-5-((2-imino-3-methylimidazolidin-1-yl)methyl)benzamide]

GI50 [1]: < 100 nM | Ki [2]: < 0.1 nM
Structure (SMILES): CCn1cc(-c2cc(CN3CCN(C)C3=N)cc(C(=O)N[C@H](c3ccc(F)c(Cl)c3)C3CC3)c2)c(C(F)(F)F)n1 [Example 214, (S)—N-((3-Chloro-4-fluorophenyl)(cyclopropyl)methyl)-3-(1-ethyl-3-(trifluoromethyl)-1H pyrazol-4-yl)-5-((2-imino-3-methylimidazolidin-1-yl)methyl)benzamide]

GI50 [1]: < 100 nM | Ki [2]: < 0.1 nM
Structure (SMILES): Cc1cc([C@@H](NC(=O)c2cc(CN3CCN(C)C3=N)cc(-c3cn(C(C)C)nc3C(F)(F)F)c2)C2CC2)ccc1F [Example 215, (S)—N-(Cyclopropyl(4-fluoro-3-methylphenyl)methyl)-3-((2-imino-3-methylimidazolidin-1-yl)methyl)-5-(1-isopropyl-3-(trifluoromethyl)-1H-pyrazol-4-yl)benzamide]

Structure (SMILES): CC(C)n1cc(-c2cc(CN3CCN(C)C3=N)cc(C(=O)N[C@H](c3ccc(F)c(F)c3)C3CC3)c2)c(C(F)(F)F)n1 [Example 216, (S)—N-(Cyclopropyl(3,4-difluorophenyl)methyl)-3-((2-imino-3-methylimidazolidin-1-yl)methyl)-5-(1-isopropyl-3-(trifluoromethyl)-1H-pyrazol-4-yl)benzamide]
GI50 [1]: < 100 nM | Ki [2, 3]: < 0.1 nM

Structure (SMILES): Cc1cc([C@@H](NC(=O)c2cc(Cn3ccn(C)c3=N)cc(C3(C(F)(F)F)CC3)c2)C2CC2)ccc1F [Example 217, (S)—N-(cyclopropyl(4-fluoro-3-methylphenyl)methyl)-3-((2imino-3-methyl-2,3-dihydro-1H-imidazol-1-yl)methyl)-5-(1-(trifluoromethyl)cyclopropyl)benzamide]
GI50 [1]: < 100 nM | Ki [2, 3]: < 0.1 nM

Structure (SMILES): CN1CCN(Cc2cc(C(=O)N[C@H](c3ccc(F)c(Cl)c3)C3CC3)cc(-c3cccnc3C(F)(F)F)c2)C1=N [Example 219, (S)—N-((3-chloro-4-fluorophenyl)(cyclopropyl)methyl)-3-((2-imino-3-methylimidazolidin 1-yl)methyl)-5-(2-(trifluoromethyl)pyridin-3-yl)benzamide]
GI50 [1]: < 100 nM | Ki [2, 3]: < 0.1 nM

Structure (SMILES): Cc1cccc(C2(NC(=O)c3cc(Cn4ccn(C)c4=N)cc(-c4cn(C)nc4C(F)(F)F)c3)CCC2)c1 [Example 220, 3-((2-Imino-3-methyl-2,3-dihydro-1H-imidazol-1-yl)methyl)-5-(1-methyl-3-(trifluoromethyl)-1H-pyrazol-4-yl)-N-(1-(m-tolyl)cyclobutyl)benzamide]
GI50 [1]: 220 nM | Ki [2, 3]: < 0.1 nM

Structure (SMILES): COc1cc([C@@H](NC(=O)c2cc(Cn3ccn(C)c3=N)cc(-c3cn(C)nc3C(F)(F)F)c2)C2CC2)ncc1F [Example 221, (S)—N-(Cyclopropyl(5-fluoro-4-methoxypyridin-2-yl)methyl)-3-((2-imino-3-methyl-2,3-dihydro-1-imidazol-1-yl)methyl)-5-(1-methyl-3-(trifluoromethyl)-1H-pyrazol-4-yl)benzamide]
GI50 [1]: < 100 nM | Ki [2, 3]: < 0.1 nM

Structure (SMILES): Cc1cc([C@@H](NC(=O)c2cc(Cn3ccn(C)c3=N)cc(N3CCOC[C@H]3C)c2)C2CC2)ccc1F [Example 227, N—((S)-cyclopropyl(4-fluoro-3-methylphenyl)methyl)-3-((2-imino-3-methyl-2,3-dihydro-1H-imidazol-1-yl)methyl)-5-((R)-3-methylmorpholino)benzamide]
GI50 [1]: 940 nM | Ki [2, 4]: 2.1 nM

GI50 [1]: 550 nM | Ki [2]: 0.21 nM
Structure (SMILES): COc1cc(CNC(=O)c2cc(Cn3ccoc3=N)cc(-c3ccc(F)cc3C)c2)cc(OC)c1 [Example 229, N-(3,5-Dimethoxybenzyl)-4′-fluoro-5-((2-iminooxazol-3(2H)-yl)methyl)-2′-methyl-[1,1′-biphenyl]-3-carboxamide]

Structure (SMILES): COc1cc(OC)cc(C(NC(=O)c2cc(Cn3ccoc3=N)cc(-c3ncccc3C(F)(F)F)c2)C2CC2)c1 (stereo not drawn) [Example 235, N-(Cyclopropyl(3,5-dimethoxyphenyl)methyl)-3-((2-iminooxazol-3(2H)-yl)methyl)-5-(3-(trifluoromethyl)pyridin-2-yl)benzamide]
GI50 [1]: 3100 nM | Ki [2, 3]: 3.5 nM
